Assay results reported in US20170000784A1, “Autophagy Inhibitors” (priority 2013, published 2017).
Like-named read-outs stand apart in the source and are kept apart here.

Experiments:
A375 cells = assay type: cell-based, human; details: A375 soft agar; single compound at IC10
Description: After three weeks of treatment, cells were fixed and stained in 1% paraformaldehyde in 1×PBS containing 0.005% crystal violet overnight. Cells were destained with multiple washes of 1×PBS to remove background staining. Plates were scanned and images quantified using Nikon NIS Elements software. To quantify, each image was sharpened and an ROI of equal size drawn around each well. Intensity thresholds were set to include all pixels equal to or greater than the intensity of the mean background fluorescence. Objects within the threshold of each ROI were quantified using an automated object count function and exported for analysis. Object number was quantified to denote total colony formation. […] Additivity was established when the expected viability determined by the Bliss independence model was equal to the actual viability. This model was chosen since the effects of both compounds are mutually non-exclusive and follow first order Michaelis-Menten kinetics.
To determine if the effects of each combination were more than, less than, or equal to additive, predictions for additivity were made using the Bliss Independence (Table 7), as disclosed in Yan H, Zhang B, Li S, Zhao Q. A formal model for analyzing drug combination effects and its application in TNF-alpha-induced NFkappaB pathway. BMC Syst. […] Drug combination studies and their synergy quantification using the Chou-Talalay method.

[1] = tested on: U2OS cells stably expressing tfLC3; assay type: cell-based; details: for Effective Concentration (EC): concentration with statistically significant increase in puncta number over vehicle control, three hours
Method: U2OS cells stably expressing tfLC3 were seeded at 50,000 cells per well in 5A McCoy's with 10% FBS on number 1.5 coverglass in 24-well tissue culture dishes. After 24 hours, cells were treated with known autophagy controls rapamycin [100 nM] (Millipore, 553210-10 mg), bafilomycin A1 [100 nM] (AG Scientific, B-1183), AZD-8055 [100 nM](Selleck Chemicals, S1555), and CQ [50 μM] as well as autophagy inhibitors (CQ, QN, Example 7, and Example 27) at doses of 0.1 μM, 0.25 μM, 0.5 μM, 1 μM, 5 μM, 15 μM, 25 μM, and 50 μM for three hours. Cells were washed with 1×PBS, fixed with 3.7% formaldehyde, and nuclei were stained with Hoechst 33342 (2 μg/mL). Coverglass was inverted onto microscope slides using mounting gel. Cells were imaged using a 60× oil-immersion objective on a Nikon Eclipse Ti fluorescent microscope and 10 images at each dose were taken for quantification. Image processing and quantification were completed with the Nikon NIS Elements software. To quantify, images were deconvolved using a 2D blind deconvolution function with one iteration and settings of normal cell thickness and normal noise level. Regions of interest (ROI) were drawn around the edges of each cell. Intensity thresholds were set to include all pixels equal to or greater than the intensity above the mean background fluorescence using the separation feature and restrictions set for puncta size (FIG. 9). Objects within the threshold for each ROI were quantified using an automated object count function and exported for analysis. Although other parameters were also collected, the mean intensity of the objects was averaged between the 10 images of each dose, or approximately 50 cells (FIGS. 9B and 9C). Representative images were chosen for each dose and the lookup table (LUT) brightness' were set based on the mean intensity of the DMSO control (FIGS. 8A and 10A). The mean intensity of each image was divided by the mean intensity of the DMSO control to control for brightness and the LUTs were adjusted by the percent difference to avoid background and for consistent visualization. All other settings (gain, exposure time, and lamp strength) were kept the same across all conditions. […] Mean intensity was further chosen for quantification as it accurately represents both the increase in puncta number and area when the accumulation of autophagosomes partially fuse (FIG. 9C, 9D). Quantification of the red channel (RFP-LC3 puncta) was performed to determine the total autophagic vesicle population (both autophagosomes and autolysosomes).
Autophagy inhibition can be measured by fluorescent microscopy using cells expressing a tandem fluorescent (RFP-GFP) labeled LC3 sensor (tfLC3). Upon autophagosome nucleation, LC3 is localized to the autophagic membrane and the overlapping GFP and RFP fluorescence appears as yellow puncta. After the autophagosome matures, it fuses with the lysosome, forming an autolysosome. The GFP in this LC3 sensor is pH labile and becomes quenched by the acidic environment of the autolysosome. However, the RFP remains stable; therefore, autolysosomes are indicated by red puncta. Accordingly, when autophagy is inhibited at the final stage (completion), the abundance of yellow puncta is expected to increase proportionally to the level of autophagy inhibition.
Cells were then fixed and imaged by fluorescent microscopy.

[2] = tested on: endogenous LC3 in U2OS cells; assay: Western blot of endogenous LC3 (LC3-II accumulation) in U2OS; assay type: cell-based; details: three hours, basally and in response to rapamycin-induced autophagy induction, FIG. 7
Method: For Western blotting, U2OS cells were seeded in 10 cm plates in 5A McCoy's with 10% FBS at 1×10^6 cells per plate. […] After treatment, cells were lysed [10 mM KPO4, 1 mM EDTA, 10 mM MgCl2, 5 mM EGTA, 50 mM bis-glycerophosphate, 0.5% NP40, 0.1% Brij35, 0.1% sodium deoxycholate, 1 mM NaVO4, 5 mM NaF, 2 mM DTT, and complete protease inhibitors (Sigma, P8340-5 mL)] and 50 μg of protein was resolved by SDS-PAGE. […] Proteins were detected with enhanced chemiluminescence or using the Odyssey machine and quantified (FIGS. 12, 15, 16, 7 and 11).

[3] = tested on: lysosomes (LAMP1, LysoTracker Red) in U2OS cells; assay: Lysosome analysis by fluorescent microscopy (LAMP1 / LysoTracker Red); assay type: cell-based; details: 3 μM for 3 hours
Method: To determine deacidification of the lysosome, cells were incubated with LysoTracker Red, a dye that localizes to the lysosome based on the […] of the compartment. If the lysosome is no longer acidic, there is a loss in the amount of LysoTracker Red staining. Lysosomal inhibition was further determined by immunofluorescence of lysosome-associated membrane protein-1 (LAMP1). If the lysosome is inhibited, lysosomal turnover should decrease and an increase in the amount of LAMP1 staining would be apparent. U2OS cells were treated with Example 7 or Example 26 at 3 μM for 3 hours, supplementing LysoTracker Red for the final hour.
Using image analysis software, the mean intensities of both the LAMP1 and LysoTracker Red staining were measured and represent altered intensity level between treatments on intensity plots. Individual points were measured using a line scan on the image analysis software, which measures the intensity across the path of a line at any given point. Not only does the presence of LAMP1 positive membranes increases, but the intensity in LAMP1 staining also increases with Example 7 and Example 26 treatment. The inverse relationship in intensity holds true for LysoTracker Red staining.
U2OS cells were seeded at 5×10^4 cells per well in 5A McCoy's with 10% FBS on number 1.5 coverglass discs in 24-well tissue culture dishes. After 24 hours, cells were treated with 3 μM CQ, QN, VATG-027, or VATG-032 for three hours. An hour prior to fixation, media was supplemented with LysoTracker Red added at 100 nM (Invitrogen, L7528). Cells were washed with 1×PBS, fixed with 3.7% formaldehyde, permeabilized with 0.2% Triton-X 100, and blocked with 3% bovine serum albumin (BSA) in PBS. LAMP1 antibody (Santa Cruz, sc-18821) was added at 1:1000 for 16 hours at 4° C. followed by Alexa-Fluor-488-conjugated anti-mouse IgG (Invitrogen, A11008) 1:5000 for 1 hour at room temperature. Nuclei were stained with Hoechst 33342 (2 μg/mL). Coverglass discs were inverted onto a microscope slide using mounting gel. The microscope slides were imaged using a 60× oil-immersion objective on a Nikon Eclipse Ti fluorescent microscope. Intensity of the red and green channels were visualized using the intensity plot on the Nikon NIS Elements software (FIG. 13B). […] The RGB threshold of only the color […] indicating both LAMP1 and LysoTracker Red positivity was performed and data for analysis. The Mander's co-localization coefficient was produced from the Nikon NIS Elements software.
Next, the inventors sought to confirm the inhibition of lysosomal turnover induced by the compounds of the present invention, for example, those of Formula III, Formula III(a), Formula V, Formula V(a), Formula A, Formula A^1, Formula A^2, Formula A^3, or a pharmaceutically acceptable salt thereof, by evaluating the abundance of endogenous lysosomal protein, LAMP1. In addition, lysosome acidity was assessed by co-staining cells with LysoTracker Red, a dye that localizes to the lysosome based on the low pH. Cells were treated with 3 μM CQ, QN, Example 7, or Example 27 for 3 hours, with LysoTracker Red supplemented for the final hour. Following, cells were fixed and stained with endogenous LAMP1 antibodies and both LAMP1 and LysoTracker Red imaged. […] To quantify this phenotype, the co-localization of LAMP1 and LysoTracker Red was measured using image analysis software. […] In addition, Mander's colocalization coefficient (MCC) values were determined for each treatment (FIG. 13C). Not only does the presence of LAMP1-positive membranes increase, but the intensity of LAMP1 staining also increases with QN, Example 7, and Example 27 treatment (FIG. 13C).

Compound | Potency (EC/ECCQ) [1] | Effective Concentration (EC) [1] [µM] | accumulation of LC3-II [2] | also measured
COc1ccc(-c2ccc3c(N4CCOC[C@@H]4C)nc(N4CCOC[C@@H]4C)nc3n2)cc1CO [AZD-8055, reference compound] |  |  |  | Relative Growth Inhibition Compound B (A375 cells): 0.12
CCN(CC)Cc1cc(Nc2ccnc3cc(Cl)ccc23)ccc1O [Amodiaquine, amodiaquine] | 1 | 15 | induce the accumulation of LC3-II | 
CCN1CCC(Nc2c3c(nc4cc(Cl)ccc24)CCCC3)CC1 [Example 26, 6-Chloro-N-(1-ethylpiperidin-4-yl)-1,2,3,4-tetrahydroacridin-9-amine] |  |  |  | LAMP1 staining [3]: increases; LysoTracker Red staining ([3]; LysoTracker Red for the final hour): less intense
COc1cc(NC(C)CCCN)c2ncccc2c1 (stereo not drawn) [Primaquine, primaquine] |  | 50 | induce the accumulation of LC3-II | Potency (EC/ECCQ) ([1]; relative potency score versus chloroquine, greater than one = more potent than CQ): 0.25
piperaquine | 0.25 | 50 | induce the accumulation of LC3-II | 
